In patent publication US9416115B2, “Fused heterocyclic compounds as ion channel modulators” (Gilead Sciences, Inc., priority 2013, dated 2016):

target: wild-type human cardiac sodium channel, hNav1.5 (Homo sapiens, UniProt Q14524); test: Late INa screening assay (QPatch whole cell patch clamp, Tefluthrin-induced late current); type: cell-based; conditions: 1 uM; HEK293 hNav1.5; percent block of late INa
Experimental: The cardiac late sodium current (Late INa) and peak sodium current (Peak INa) assays are performed on an automated electrophysiology platform, QPatch 16X or QPatch HT (Sophion Bioscience, Copenhagen, Denmark) using the whole cell patch clamp technique to measure currents through the cell membrane. The assay uses an HEK293 (human embryonic kidney) cell line heterologously expressing the wild-type human cardiac sodium channel, hNav1.5, purchased from Millipore (Billerica, Mass.). No beta subunits were coexpressed with the Na channel alpha subunit. Cells are maintained with standard tissue culture procedures and stable channel expression is maintained with 400 μg/mL Geneticin in the culture medium. Experiments are carried out at 23-25° C.
For both the Late INa and Peak INa assays, series resistance compensation is set to 100% and series resistance and whole-cell compensation are performed automatically. Currents are digitized at 25 kHz and low-pass filtered at 5 kHz and stored in the Sophion Bioscience Oracle database (Sophion Bioscience, Copenhagen, Denmark). Analysis is performed using QPatch Assay software and data are compiled in Excel 2010 (Microsoft, Seattle, Wash., U.S.A.).
Compound stocks are routinely made by the Gilead Sample Bank in vials to 10 mM in dimethyl sulfoxide (DMSO). In some cases, when compounds are not soluble in DMSO, they are made in 100% ethanol. Stocks are sonicated as necessary. The extracellular solution for screening Late INa is composed of: 140 mM NaCl, 4 mM KCl, 1.8 mM CaCl2, 1 mM MgCl2, 10 mM HEPES and 10 mM Dextrose with pH adjusted to 7.35 using NaOH. The intracellular solution contains: 105 mM CsF, 20 mM CsCl, 10NaF, 2 mM EGTA, 10 mM HEPES and 10 mM Dextrose with pH adjusted to 7.35 with CsOH. Compounds are diluted in extracellular solution using a MicroLab Nimbus (Hamilton Robotics, Reno, Nev.) to between 0.3 and 3 μM in glass vials and transferred to glass well plates before robotic addition to the cells. The 0 mM Na extracellular solution (0Na-ECF) used at the end of each experiment for the Late INa and Peak INa assays to measure baseline current contains: 140 Choline-Cl; 4 mM KCl, 1.8 mM CaCl2; 1 mM MgCl2; 10 mM HEPES and 10 mM Dextrose with pH was adjusted to 7.35 with CsOH.
For the Late INa assay, sodium channels are activated every 10 seconds (0.1 Hz) by depolarizing the cell membrane to −20 mV for 250 milliseconds (ms) from a holding potential of −120 mV.
Compounds were tested to determine their activity in blocking the late sodium current. Late INa was generated by adding 10 μM Tefluthrin (pyrethroid) to the extracellular solution. For the purposes of the screening, Late INa is defined as the mean current between […] during the voltage step to −20 mV. After establishing the whole cell recording configuration, Late INa activator is added to each well 4 times over a 15 minute period so that the late component of the Na current reaches a stable value. Compounds were then added (typically at 0.3 or 1 μM), in the presence of the Late Na^+ activator, with 3 additions over the course of 5 minutes. Measurements were made at the end of exposure to the third compound addition and values were normalized to the current level when all Na^+ was removed from the extracellular solution after two additions of 0Na-ECF.
Results are reported as percent block of late INa and results were analyzed by incorporating rundown correction for the Late INa.

Sequence of wild-type human cardiac sodium channel, hNav1.5 (Q14524 whole entry): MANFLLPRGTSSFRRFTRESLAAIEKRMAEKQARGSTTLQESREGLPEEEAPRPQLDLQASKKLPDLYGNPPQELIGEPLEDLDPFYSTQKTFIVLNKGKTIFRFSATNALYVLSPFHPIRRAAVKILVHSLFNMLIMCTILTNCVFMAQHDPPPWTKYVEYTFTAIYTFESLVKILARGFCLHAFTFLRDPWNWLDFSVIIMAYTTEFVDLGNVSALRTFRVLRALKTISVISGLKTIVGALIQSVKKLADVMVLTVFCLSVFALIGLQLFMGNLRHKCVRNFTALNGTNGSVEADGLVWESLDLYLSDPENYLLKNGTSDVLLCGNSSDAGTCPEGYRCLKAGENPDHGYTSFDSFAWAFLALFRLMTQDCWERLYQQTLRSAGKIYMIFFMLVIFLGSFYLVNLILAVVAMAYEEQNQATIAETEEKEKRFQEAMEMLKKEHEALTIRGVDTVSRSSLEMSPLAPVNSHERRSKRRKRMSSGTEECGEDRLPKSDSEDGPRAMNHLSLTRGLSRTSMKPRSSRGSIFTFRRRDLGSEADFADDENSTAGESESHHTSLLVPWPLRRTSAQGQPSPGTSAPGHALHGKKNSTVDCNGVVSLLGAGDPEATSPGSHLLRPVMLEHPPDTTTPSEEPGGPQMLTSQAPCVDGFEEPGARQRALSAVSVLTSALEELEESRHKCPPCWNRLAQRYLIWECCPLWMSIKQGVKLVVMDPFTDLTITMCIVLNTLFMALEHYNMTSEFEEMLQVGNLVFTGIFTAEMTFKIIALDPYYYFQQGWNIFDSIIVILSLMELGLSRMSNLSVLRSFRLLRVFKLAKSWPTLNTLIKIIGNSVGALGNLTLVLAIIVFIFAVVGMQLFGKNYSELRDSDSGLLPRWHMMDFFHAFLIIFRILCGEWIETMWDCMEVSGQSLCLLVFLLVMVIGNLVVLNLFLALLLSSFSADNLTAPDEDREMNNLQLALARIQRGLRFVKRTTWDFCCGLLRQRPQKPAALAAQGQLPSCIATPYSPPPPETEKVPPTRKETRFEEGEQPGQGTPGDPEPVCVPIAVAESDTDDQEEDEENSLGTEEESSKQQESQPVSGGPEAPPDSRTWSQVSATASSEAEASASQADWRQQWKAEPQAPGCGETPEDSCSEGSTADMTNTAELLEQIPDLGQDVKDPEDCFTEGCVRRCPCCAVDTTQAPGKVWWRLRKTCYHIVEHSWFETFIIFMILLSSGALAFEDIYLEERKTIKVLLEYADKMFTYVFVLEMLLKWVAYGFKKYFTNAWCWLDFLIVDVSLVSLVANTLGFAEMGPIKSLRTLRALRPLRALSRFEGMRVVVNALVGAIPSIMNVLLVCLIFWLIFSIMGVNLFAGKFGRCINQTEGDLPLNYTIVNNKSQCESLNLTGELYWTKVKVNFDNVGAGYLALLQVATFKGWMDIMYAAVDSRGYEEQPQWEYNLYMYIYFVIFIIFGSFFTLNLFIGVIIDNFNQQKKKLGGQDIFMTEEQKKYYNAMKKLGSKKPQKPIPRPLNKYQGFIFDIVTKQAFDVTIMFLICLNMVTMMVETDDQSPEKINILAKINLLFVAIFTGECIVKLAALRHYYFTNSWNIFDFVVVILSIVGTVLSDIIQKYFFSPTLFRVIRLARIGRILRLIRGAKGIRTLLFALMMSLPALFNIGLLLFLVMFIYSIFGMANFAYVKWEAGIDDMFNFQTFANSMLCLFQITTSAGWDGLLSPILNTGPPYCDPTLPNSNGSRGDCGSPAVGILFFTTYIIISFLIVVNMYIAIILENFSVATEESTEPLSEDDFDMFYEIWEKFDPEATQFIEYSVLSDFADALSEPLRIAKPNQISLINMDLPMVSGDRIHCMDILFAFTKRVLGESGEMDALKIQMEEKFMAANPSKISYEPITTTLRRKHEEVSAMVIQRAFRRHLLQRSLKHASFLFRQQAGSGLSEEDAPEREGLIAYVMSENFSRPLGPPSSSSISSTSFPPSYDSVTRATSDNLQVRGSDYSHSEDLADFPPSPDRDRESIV

In order of falling inhibition at 1 µM:
1. COc1cc2onc(OCc3ncccn3)c2cc1-c1ccc(OC(F)(F)F)cc1 [Example 11, 6-methoxy-3-(pyrimidin-2-ylmethoxy)-5-(4-(trifluoromethoxy)phenyl)benzo[d]isoxazole]  30%
2. Cc1nccn1-c1noc2ccc(-c3ccc(OC(F)(F)F)cc3)cc12 [Example 138, 3-(2-methyl-1H-imidazol-1-yl)-5-(4-(trifluoromethoxy)phenyl)benzo[d]isoxazole]  29.8%
3. Cc1cc(C)n(CCOc2noc3ccc(-c4ccc(OC(F)(F)F)cc4)cc23)n1 [Example 69, 3-(2-(3,5-dimethyl-1H-pyrazol-1-yl)ethoxy)-5-(4-(trifluoromethoxy)phenyl)benzo[d]isoxazole]  29.6%
4. N#CCC1(COc2noc3ccc(-c4ccc(OC(F)(F)F)cc4)cc23)CC1 [Example 54, 2-(1-(((5-(4-(trifluoromethoxy)phenyl)benzo[d]isoxazol-3-yl)oxy)methyl)cyclopropyl)acetonitrile]  29.2%
5. Cc1cc(-c2cc3c(OCc4ncccn4)noc3cc2F)ccc1OC(F)(F)F [Example 32, 6-fluoro-5-(3-methyl-4-(trifluoromethoxy)phenyl)-3-(pyrimidin-2-ylmethoxy)benzo[d]isoxazole]  28.8%
6. c1cnc(COc2noc3ccc(-c4ccc(C5CC5)nc4)cc23)nc1 [Example 20, 5-(6-cyclopropylpyridin-3-yl)-3-(pyrimidin-2-ylmethoxy)benzo[d]isoxazole]  28.8%
7. O=C1CC[C@@H](COc2noc3ccc(-c4ccc(OC(F)(F)F)cc4)cc23)N1 [Example 62, (S)-5-(((5-(4-(trifluoromethoxy)phenyl)benzo[d]isoxazol-3-yl)oxy)methyl)pyrrolidin-2-one]  28.4%
8. Cc1cccc(COc2noc3c(C)cc(-c4ccc(OC(F)(F)F)cc4)cc23)n1 [Example 106, 7-methyl-3-((6-methylpyridin-2-yl)methoxy)-5-(4-(trifluoromethoxy)phenyl)benzo[d]isoxazole]  28.3%
9. FC(F)(F)Oc1ccc(-c2ccc3onc(OCc4cc5ccccc5cn4)c3c2)cc1 [Example 82, 3-(isoquinolin-3-ylmethoxy)-5-(4-(trifluoromethoxy)phenyl)benzo[d]isoxazole]  28.1%
10. Cc1cc(-c2cccc(OC(F)(F)F)c2)cc2c(OCc3ncccn3)noc12 [Example 19, 7-methyl-3-(pyrimidin-2-ylmethoxy)-5-(3-(trifluoromethoxy)phenyl)benzo[d]isoxazole]  27.5%
11. Cn1cnc(COc2noc3ccc(-c4ccc(OC(F)(F)F)cc4)cc23)c1 [Example 43, 3-((1-methyl-1H-imidazol-4-yl)methoxy)-5-(4-(trifluoromethoxy)phenyl)benzo[d]isoxazole]  27.1%
12. FC(F)(F)Oc1ccc(-c2ccc3onc(OCc4cnn(-c5ccccn5)c4)c3c2)cc1 [Example 65, 3-((1-(pyridin-2-yl)-1H-pyrazol-4-yl)methoxy)-5-(4-(trifluoromethoxy)phenyl)benzo[d]isoxazole]  27%
13. FC(F)(F)Oc1ccc(-c2ccc3onc(OCc4nccc(N5CCOCC5)n4)c3c2)cc1 [Example 70, 3-((4-morpholinopyrimidin-2-yl)methoxy)-5-(4-(trifluoromethoxy)phenyl)benzo[d]isoxazole]  25.5%
14. CC(C)Nc1noc2ccc(-c3ccc(OC(F)(F)F)cc3)cc12 [Example 131, N-isopropyl-5-(4-(trifluoromethoxy)phenyl)benzo[d]isoxazol-3-amine]  24.8%
15. Cc1nc(COc2noc3ccc(-c4ccc(OC(F)(F)F)cc4)cc23)c(C)o1 [Example 52, 3-((2,5-dimethyloxazol-4-yl)methoxy)-5-(4-(trifluoromethoxy)phenyl)benzo[d]isoxazole]  24.3%
16. FC(F)(F)Oc1ccc(-c2ccc3onc(OCc4c[nH]nn4)c3c2)cc1 [Example 83, 3-((1H-1,2,3-triazol-4-yl)methoxy)-5-(4-(trifluoromethoxy)phenyl)benzo[d]isoxazole]  23.7%
17. Fc1cc(-c2ccc(OC(F)(F)F)cc2)cc2c(OCCn3cncn3)noc12 [Example 84, 3-(2-(1H-1,2,4-triazol-1-yl)ethoxy)-7-fluoro-5-(4-(trifluoromethoxy)phenyl)benzo[d]isoxazole]  23.6%
18. O=S1(=O)CCN(CCOc2noc3ccc(-c4ccc(OC(F)(F)F)cc4)cc23)CC1 [Example 85, 4-(2-((5-(4-(trifluoromethoxy)phenyl)benzo[d]isoxazol-3-yl)oxy)ethyl)thiomorpholine 1,1-dioxide]  22.5%
19. FC(F)(F)Oc1ccc(-c2ccc3onc(OCc4nccc(C(F)(F)F)n4)c3c2)cc1 [Example 86, 5-(4-(trifluoromethoxy)phenyl)-3-((4-(trifluoromethyl)pyrimidin-2-yl)methoxy)benzo[d]isoxazole]  21.9%
20. FC(F)(F)Oc1ccc(-c2ccc3onc(OCCc4ncc[nH]4)c3c2)cc1 [Example 66, 3-(2-(1H-imidazol-2-yl)ethoxy)-5-(4-(trifluoromethoxy)phenyl)benzo[d]isoxazole]  21.9%
21. O=C1CC[C@H](CNc2noc3ccc(-c4ccc(OC(F)(F)F)cc4)cc23)N1 [Example 134, (R)-5-(((5-(4-(trifluoromethoxy)phenyl)benzo[d]isoxazol-3-yl)amino)methyl)pyrrolidin-2-one]  21.1%
22. Cc1cc(OC(F)(F)F)ccc1-c1cc2c(OCc3ncccn3)noc2cc1F [Example 34, 6-fluoro-5-(2-methyl-4-(trifluoromethoxy)phenyl)-3-(pyrimidin-2-ylmethoxy)benzo[d]isoxazole]  21%
23. COc1ccnc(COc2noc3c(C)cc(-c4ccc(OC(F)(F)F)cc4)cc23)n1 [Example 90, 3-((4-methoxypyrimidin-2-yl)methoxy)-7-methyl-5-(4-(trifluoromethoxy)phenyl)benzo[d]isoxazole]  20.9%
